According to patent publication US7576177B2, “Hsp peptides and analogs for modulation of immune responses via antigen presenting cells” (Andromeda Biotech Ltd., priority 2002, dated 2009):

Test system: cell lines

VLGGGVALLRVIPALDSLTPANED [p277(Val^6-Val^11)]
direct stimulation of TNFα: ineffective | inhibition of TNFα secreted as a result of stimulation by LPS or hsp60: ineffective
